Test results: US20200031848A1, “AR-V7 INHIBITORS” (Hoffmann-La Roche Inc., priority 2016, published 2020)

Experiments:
[1] = system: PSA levels secreted into the media; test: Prostate-specific antigen (PSA) assay; type: cell-based; conditions: Homo sapiens, 72 h; in parallel to the eGFP assay, same plates, 3 days
Protocol: (§1) 1. Cell Culture: LNCaP and PC3 human prostate cancer cells were obtained from American Type Culture Collection (ATCC, Manassas, Va.) and grown in RPMI 1640 medium supplemented with 5% fetal bovine serum (FBS) (Invitrogen). The LNCaP eGFP cell line was stably transfected with an androgen-responsive probasin-derived promoter fused to an eGFP reporter (LN-ARR2PB-eGFP) using a lentiviral approach, and were grown in phenol-red-free RPMI 1640 supplemented with 5% CSS. In-house developed MDV3100-resistant LNCaP cells were cultured in RPMI 1640 supplemented with 5% FBS and 10 μM MDV3100. All cells were maintained at 37° C. in 5% CO2.
3. Prostate-specific antigen (PSA) assay: The evaluation of PSA levels secreted into the media was performed in parallel to the eGFP assay using the same plates. After cells were incubated for 3 days, 150 μl of the media was taken from each well, and added to 150 μl of PBS. PSA levels were then evaluated using Cobas e 411 analyzer instrument (Roche Diagnostics) according to the manufacturer's instructions.

[2] = target: T1, AR transcriptional activity (Homo sapiens, UniProt P10275, T878A); test: eGFP cellular AR transcription assay; type: cell-based; conditions: LNCaP eGFP cell line
T1 construct: The LNCaP eGFP cell line was stably transfected with an androgen-responsive probasin-derived promoter fused to an eGFP reporter; endogenous in cells; host or cells: LNCaP eGFP (LN-ARR2PB-eGFP) human prostate cancer cells
T1 sequence (P10275 1-920 T878A): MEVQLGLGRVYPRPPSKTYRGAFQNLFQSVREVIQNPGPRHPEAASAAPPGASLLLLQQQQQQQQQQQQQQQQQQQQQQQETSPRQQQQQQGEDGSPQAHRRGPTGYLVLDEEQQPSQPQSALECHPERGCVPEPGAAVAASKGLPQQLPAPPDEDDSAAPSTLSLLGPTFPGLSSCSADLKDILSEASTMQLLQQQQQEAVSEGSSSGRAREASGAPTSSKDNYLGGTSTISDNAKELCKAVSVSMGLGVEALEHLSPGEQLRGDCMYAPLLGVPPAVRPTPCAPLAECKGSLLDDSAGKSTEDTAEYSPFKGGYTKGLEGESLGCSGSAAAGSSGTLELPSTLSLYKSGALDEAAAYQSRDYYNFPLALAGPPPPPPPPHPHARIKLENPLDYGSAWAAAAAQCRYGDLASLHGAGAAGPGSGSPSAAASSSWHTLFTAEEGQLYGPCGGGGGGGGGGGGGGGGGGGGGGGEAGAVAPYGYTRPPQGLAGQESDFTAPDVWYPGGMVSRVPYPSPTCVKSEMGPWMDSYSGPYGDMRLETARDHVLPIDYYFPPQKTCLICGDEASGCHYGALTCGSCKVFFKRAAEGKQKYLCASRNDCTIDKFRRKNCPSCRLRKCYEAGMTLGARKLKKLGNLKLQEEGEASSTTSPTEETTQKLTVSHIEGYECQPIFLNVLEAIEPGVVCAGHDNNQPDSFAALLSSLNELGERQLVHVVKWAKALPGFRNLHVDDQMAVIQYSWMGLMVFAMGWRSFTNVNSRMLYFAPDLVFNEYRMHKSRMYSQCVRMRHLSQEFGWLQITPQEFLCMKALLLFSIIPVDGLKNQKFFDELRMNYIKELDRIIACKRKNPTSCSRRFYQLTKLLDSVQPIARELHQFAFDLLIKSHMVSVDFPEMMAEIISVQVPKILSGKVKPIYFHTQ
Text: The DNA-binding domain is an attractive target for inhibition of AR dimerization and/or DNA binding. In silico computational drug discovery methods were used to conduct a virtual screen of >3 million purchasable lead-like compounds from the ZINC database (Irwin, J. et al.^11) to identify potential DBD binders. The in silico methods included large-scale docking, in-site rescoring and consensus voting procedures. It will be understood by a person of skill that COOH and NR2 may include the corresponding ions, for example carboxylate ions and ammonium ions, respectively. Alternatively, where the ions are shown, a person of skill in the art will appreciate that the counter ion may also be present. Furthermore, it will be appreciated by a person of skill that other moieties may include the corresponding ions, and where the ions are shown, a person of skill in the art will appreciate that the counter ion may also be present. […] Where the % inhibition, eGFP IC50 or the PSA IC50 has no value given, this may be because no measurement was taken or the value was not calculated, in the case of the % inhibition. In vitro identification of AR inhibitors targeting AR DBD The selected compounds were assessed with a non-destructive eGFP assay that quantifies levels of AR transcriptional activity, were identified (table below).
as §1
2. eGFP cellular AR transcription assay: The AR transcriptional activity was assayed as previously described (Tavassoli, P., et al.^12).

[3] = in vitro; conditions: human, microsomes, pH 7.4
Protocol: Microsomal incubations were carried out in 96-well plates in 5 aliquots of 40 μL each (one for each time point). […] Control incubations were performed replacing the NADPH-cofactor system with PBS. […] Incubations were performed in duplicates. Five time points over 40 minutes had been analyzed. The reactions were stopped by adding 12 volumes of 90% acetonitrile-water to incubation aliquots, followed by protein sedimentation by centrifuging at 5500 rpm for 5 minutes. Supernatants were analyzed using the HPLC system coupled with tandem mass spectrometer. The elimination constant (kel), half-life (t1/2) and intrinsic clearance (Clint) were determined in plot of […] versus time, using linear regression analysis: […]

Row | SMILES | IC50 [1] [nM] | IC50 [2] [nM] | microsomal CLint at 2 μM [3] [µL/min/mg]
1 | Clc1c(Br)ncn1-c1csc(N2[C@@H]3CCC[C@H]2COC3)n1 [Example 9, (1R,5S)-9-[4-(4-bromo-5-chloro-imidazol-1-yl)thiazol-2-yl]-3-oxa-9-azabicyclo[3.3.1]nonane] | 784 | 746 | –
2 | Brc1cn(-c2csc(N3[C@@H]4CC[C@H]3COC4)n2)c(Br)n1 [Example 10, (1R,5S)-8-[4-(2,4-dibromoimidazol-1-yl)thiazol-2-yl]-3-oxa-8-azabicyclo[3.2.1]octane] | 817 | 934 | –
3 | CSc1nc(Br)cn1-c1csc(N2CCOCC2)n1 [Example 41, 4-[4-(4-bromo-2-methylsulfanyl-imidazol-1-yl)thiazol-2-yl]morpholine] | 458 | 496 | 198
4 | Brc1ncn(-c2csc(N3CCOCC3)n2)c1Br [Example 43, 4-[4-(4,5-dibromoimidazol-1-yl)thiazol-2-yl]morpholine] | 1390 | 1230 | 165

More lines, now with the values ahead:

Row | IC50 [1] [nM] | IC50 [2] [nM] | microsomal CLint at 2 μM [3] [µL/min/mg] | SMILES
5 | 420 | 413 | 177 | Brc1cn(-c2csc(N3CCOCC3)n2)c(Br)n1 [Example 40, 4-[4-(2,4-dibromoimidazol-1-yl)thiazol-2-yl]morpholine]
6 | 659 | 750 | 72 | Cc1nc(Br)cn1-c1csc(N2CCOCC2)n1 [Example 42, 4-[4-(4-bromo-2-methyl-imidazol-1-yl)thiazol-2-yl]morpholine]
